Data: patent US20190388377A1, “COMPOSITIONS AND METHODS FOR THE TREATMENT OF LIVER DISEASES AND DISORDERS” (AXCELLA HEALTH INC., priority 2018, published 2019)

Tests used:
[1] = test system: alpha smooth muscle actin (αSMA); assay: HSC activation by alpha SMA immunostaining, TGFβ1-stimulated hepatic stellate cells; format: cell-based, human
Procedure: (§1) Primary human hepatic stellate cells were obtained from Samsara Sciences. Cells from three different donors were grown in Complete HSC Medium to ˜80% confluence in T75 or T150 flasks below passage 10 were seeded into sterile, collagen I coated, 96-well optical plastic microplates (ThermoScientific) and incubated overnight at 37° C., 5% CO2 in a humidified incubator in DMEM with 2% Fetal Bovine Serum and 1% Antimycotic. […] After 24 hours of stimulus, supernatant was removed and used to measure Procollagen III and cells were then washed and fixed with 4% paraformaldehyde for further staining.
Procollagen III, an important biomarker of fibrosis was measured by ELISA (Human PCIII Elisa Kit, G-Biosciences) following the manufacturer's recommendations. Fixed cells with 4% paraformaldehyde were permeabilized with 0.1% Triton X-100 then immunostained for alpha SMA and labeled for EdU incorporation.
Cells were imaged using ImageXpress micro confocal high content imager (Molecular Devices). […] Image analysis was performed using MetaXpress version 6.2.3.733 (Molecular Devices).
Fixed cells immunostained for alpha smooth muscle actin (αSMA) were analyzed and stained area was normalized to total nuclei count. Fold change were calculated relative to the baseline amino acid (1×HMDB) condition stimulated with 3 ng/mL TGFβ1.

Procollagen III = Procollagen III secretion by ELISA, TGFβ1-stimulated hepatic stellate cells, Example 4; format: cell-based, human; settings: HSC, three donors
Procedure: as §1, with “staining. Procollagen III, an important biomarker of fibrosis was measured by ELISA (Human PCIII Elisa Kit, G-Biosciences) following the manufacturer's recommendations. Fixed cells with 4% paraformaldehyde were permeabilized with 0.1% Triton X-100 then immunostained for alpha SMA and labeled for EdU incorporation.” for “staining.”

Human CCL2 (MCP-1) = assay: MCP1 secretion by ELISA after 24 h, PHH model for NASH, Example 2; format: cell-based; settings: FFA+TNFα
Procedure: (§2) PHH from two healthy human donors (Lonza, TRL) were seeded on day 0 at density of 6e04 cells in 96 well optical microplates (Thermofisher) in hepatocyte plating media (William's E medium, WEM) (Gibco) supplemented with 10% heat-inactivated FBS (Atlanta Bio), 2 mM Glutamax (Gibco), and 0.2% Primocin (InVivoGen) and incubated for 6 hours at 37° C., 5% CO2. After 6 hours, cells were washed twice and incubated overnight at 37° C., 5% CO2 with Hepatocytes defined medium (Corning) supplemented with 2 mM Glutamax (Gibco), and 1× Penicillin/Streptomycin. On day 1, cells were washed twice and incubated for 24 h in the hepatocyte culture media in the same conditions described above.
(§3) On day 2, cells were washed twice with DPBS 1× (Gibco) to remove excess amino acids and maintained in pretreatment media (1×HMDB, a defined custom amino acid concentration based on the mean physiological concentrations in blood, in WEM±supplemental amino acids): • a. Amino acid-free WEM (US Biologicals) supplemented with 11 mM Glucose (Sigma), 0.272 mM Sodium Pyruvate (Sigma), 1× P/S (Gibco) and containing 1×HMDB with no supplemental amino acids; or • b. The same media described above 1×HMDB WEM with supplemental amino acid and amino acid combination treatments at various concentrations. Cells were maintained in the defined media (a. & b.) for 24 hours at 37° C., 5% CO2. The HMDB values are published in the Human Metabolome Database (Wishart D S, Tzur D, Knox C, et al., HMDB: the Human Metabolome Database. Nucleic Acids Res. 2007 January; 35 (Database issue):D521-6. 17202168; which is hereby incorporated by reference in its entirety). Co-Treatment with Free Fatty Acids and Amino Acids Combination
(§4) After 24 h pre-treatment, cells maintained in the pretreatment media±supplemental amino acids (section (a. & b.) described above) were exposed to free fatty acids (FFA) at 250 uM with a ratio of 2:1 (Oleate:Palmitate) supplemented with TNF-α (Thermofisher) at 1 ng/ml. Cells were incubated with the FFAs mixture (FFAs+TNF-α)±supplemental amino acids treatments for 24 hours at 37° C., 5% CO2. After 24 hours incubation, media was removed for cytokine analysis and replaced by fresh media containing the same conditions described above (FFAs mixture±supplemental amino acids treatments). Cells were incubated for an additional 48 hours for a total of 72 hours of FFA and TNF-α stimulation. After 72 hours of incubation, media was removed for albumin and urea analysis and the cells were fixed for nuclei and lipid staining.
Human CCL2 (MCP-1) was measured by ELISA (Human […] DuoSet ELISA, R&D Systems) at 1/20 dilution in 1× Reagent Diluent (Reagent Ancillary Kit 2, R&D Systems). MCP1 data in primary human hepatocytes treated with FFA+TNFα+supplemental amino acids was normalized to 1×HMDB WEM+FFA+TNFα baseline. Data is reported as median fold change from control, statistical analysis was done using t-Test.

[2] = test system: primary human hepatocytes; assay: Intracellular lipid accumulation after 72 h by fluorescence microscopy, PHH model for NASH, Example 2; format: cell-based; settings: FFA+TNFα; for Lipid Median (median fold change from control): 72 h
Procedure: as §2, §3, §4
After 72 hours, cells were washed twice in 100 ul PBS 1× (Gibco), fixed with 4% Paraformaldehyde, and washed twice with PBS 1× (100 ul). After fixation, lipids were stained with HCS LipidTOX Red Neutral (Thermofisher Scientific) diluted 1000× and nuclei were stained with Hoechst 3342 (Life Technologies) diluted to 4 ug/ml. The LipidTOX™ neutral lipid stain has an extremely high affinity for neutral lipid droplets that was detected by fluorescence microscopy using a high content imager (Molecular Devices). Data was normalized to the cell concentration determined by nuclei count. Images were analyzed and total lipid area was calculated using granularity module in MetaXpress 6 software. Data is reported as median fold change from control, statistical analysis was done using t-Test.

Compound: CC(=O)N[C@@H](CS)C(=O)O [Nac, N-acetylcysteine]
- alpha SMA stained area (in words) [1]: reduced the alpha SMA stained area at a high level
- procollagen III secretion (in words) (Procollagen III): decreased procollagen III secretion but at a lower extent than LIRNacCar and LIRQNacSCar
- MCP1 secretion (in words) (Human CCL2 (MCP-1); hepatocyte donor 1): reduced MCP1 secretion
- MCP1 secretion (in words) (Human CCL2 (MCP-1); hepatocyte donor 2): reduced MCP1 secretion
- Lipid Median (median fold change from control) ([2]; donor 1, 5 mM): −0.013
- Lipid Median (median fold change from control) ([2]; donor 2, 7.5 mM): −0.359
- lipid accumulation (in words) ([2]; hepatocyte donor 1): did not reduce lipid accumulation
- lipid accumulation (in words) ([2]; hepatocyte donor 2): reduced lipid accumulation but less than the previously described combinations
